Here are results for 19 molecules from patent US10112899B2 (ViiV HEALTHCARE UK LIMITED, priority 2014, dated 2018).

Each structure is given as a SMILES string.

The test system of the assay is HIV in the HTLV-1 transformed cell line MT-4. In words: organism not typed. Type of assay: cell-based. The note with it: MT-4 cells, luciferase/cell titer glo readout after 96 hours, 10 point dose response.

For the molecule `Cc1c(-c2c(C)c3c(c(C)c2[C@H](OC(C)(C)C)C(=O)O)CN(C(=O)c2cccc4c2OCO4)C3)cc(F)c2c1CCCO2` (atropisomer, axis not shown; (M)) [Example 138, (S)-2-((M)-2-(benzo[d][1,3]dioxole-4-carbonyl)-6-(8-fluoro-5-methylchroman-6-yl)-4,7-dimethylisoindolin-5-yl)-2-(tert-butoxy)acetic acid], 2 nM corresponded to half-maximal inhibition (MT4, 96 h) (IC50).

On to `Cc1ccc(-c2c(C)c3c(c(C)c2C(OC(C)(C)C)C(=O)O)CN(S(=O)(=O)c2cccc4ccccc24)C3)cc1` (stereo not shown) [Example 16, 2-(tert-Butoxy)-2-(4,7-dimethyl-2-(naphthalen-1-ylsulfonyl)-6-(p-tolyl)isoindolin-5-yl)acetic acid], for which, where the note is “MT4, 96 h”, 62 nM corresponded to half-maximal inhibition (IC50).

Consider `Cc1c(-c2c(C)c3c(c(C)c2[C@H](OC(C)(C)C)C(=O)O)CN(C(=O)N2CCCC(F)(F)C2)C3)cc(F)c2c1CCCO2` (atropisomer, axis not shown) [Example 102, (S)-2-(tert-butoxy)-2-((R)-2-(3,3-difluoropiperidine-1-carbonyl)-6-(8-fluoro-5-methylchroman-6-yl)-4,7-dimethylisoindolin-5-yl)acetic acid], for which the IC50 (commonly the concentration that inhibits the measured activity by half) (MT4, 96 h) stood at 2 nM.

With `Cc1ccc(-c2c(C)c3c(c(C)c2[C@H](OC(C)(C)C)C(=O)O)CN(C2CCCC(c4ccccc4)C2)C3)cc1` (stereo partly drawn) [Example 31, (2S)-2-(tert-butoxy)-2-(4,7-dimethyl-2-(3-phenylcyclohexyl)-6-(p-tolyl)isoindolin-5-yl)acetic acid], where the note is “MT4, 96 h”, inhibition was half-maximal at 203 nM (IC50).

Regarding `Cc1ccc(-c2c(C)c3c(c(C)c2[C@H](OC(C)(C)C)C(=O)O)CN(C(=O)NC2CCC2)C3)cc1` [Example 70, (2S)-2-(tert-butoxy)-2-[2-(cyclobutylcarbamoy)-4,7-dimethyl-6-(4-methylphenyl)-2,3-dihydro-1H-isoindol-5-yl]acetic acid], for the setting “MT4, 96 h”, the IC50 stood at 34 nM.

As to `Cc1c2c(c(C)c([C@H](OC(C)(C)C)C(=O)O)c1-c1ccc3c(c1)CCCO3)CN(C(=O)c1cccc(F)c1)C2` [Example 304, (S)-2-(tert-butoxy)-2-(6-(chroman-6-yl)-2-(3-fluorobenzoyl)-4,7-dimethylisoindolin-5-yl)acetic acid], the IC50 (MT4, 96 h) was determined as 4 nM.

`Cc1ccc(-c2c(C)c3c(c(C)c2[C@H](OC(C)(C)C)C(=O)O)CN(C(=O)NCC(F)(F)F)C3)cc1` [Example 94, (S)-2-(tert-butoxy)-2-(4,7-dimethyl-6-(p-tolyl)-2-((2,2,2-trifluoroethyl)carbamoyl)isoindolin-5-yl)acetic acid] gave an IC50 (MT4, 96 h) of 44 nM.

As for `COc1ccc(C(=O)N2Cc3c(C)c(-c4cc(F)c5c(c4C)CCCO5)c([C@H](OC(C)(C)C)C(=O)O)c(C)c3C2)cc1` (atropisomer, axis not shown; (M)) [Example 196, (S)-2-(tert-butoxy)-2-((M)-6-(8-fluoro-5-methylchroman-6-yl)-2-(4-methoxybenzoyl)-4,7-dimethylisoindolin-5-yl)acetic acid], where the note is “MT4, 96 h”, 2 nM corresponded to half-maximal inhibition (IC50).

Where the note is “MT4, 96 h”, `Cc1c(-c2c(C)c3c(c(C)c2[C@H](OC(C)(C)C)C(=O)O)CN(C(=O)c2ccc(Cl)cc2)C3)cc(F)c2c1CCCO2` (atropisomer, axis not shown; (M)) [Example 198, (S)-2-(tert-butoxy)-2-((M)-2-(4-chlorobenzoyl)-6-(8-fluoro-5-methylchroman-6-yl)-4,7-dimethylisoindolin-5-yl)acetic acid] registered an IC50 of 5 nM.

For the setting “MT4, 96 h”, `Cc1c(-c2c(C)c3c(c(C)c2[C@H](OC(C)(C)C)C(=O)O)CN(C(=O)c2cc(F)cc(Cl)c2)C3)cc(F)c2c1CCCO2` (atropisomer, axis not shown; (M)) [Example 181, (S)-2-(tert-butoxy)-2-((M)-2-(3-chloro-5-fluorobenzoyl)-6-(8-fluoro-5-methylchroman-6-yl)-4,7-dimethylisoindolin-5-yl)acetic acid] returned an IC50 of 5 nM.

For the molecule `Cc1c(-c2c(C)c3c(c(C)c2[C@H](OC(C)(C)C)C(=O)O)CN(C(=O)N2CCC(C)(C)C2)C3)cc(F)c2c1CCCO2` (atropisomer, axis not shown; (M)) [Example 214, (S)-2-(tert-butoxy)-2-((M)-2-(3,3-dimethylpyrrolidine-1-carbonyl)-6-(8-fluoro-5-methylchroman-6-yl)-4,7-dimethylisoindolin-5-yl)acetic acid], the IC50 (MT4, 96 h) was found to be 3 nM.

For the molecule `Cc1ccc(-c2c(C)c3c(c(C)c2[C@H](OC(C)(C)C)C(=O)O)CN(C(=O)N2[C@H]4CC[C@@H]2CC4)C3)cc1` [Example 83, (S)-2-(2-((1R,4R)-7-azabicyclo[2.2.1]heptane-7-carbonyl)-4,7-dimethyl-6-(p-tolyl)isoindolin-5-yl)-2-(tert-butoxy)acetic acid], the IC50 (MT4, 96 h) stood at 6 nM.

In turn, `Cc1ccc(-c2c(C)c3c(c(C)c2[C@H](OC(C)(C)C)C(=O)O)CN(C(=O)N2CCN(C)C(=O)C2)C3)cc1` [Example 90, (S)-2-(tert-butoxy)-2-(4,7-dimethyl-2-(4-methyl-3-oxopiperazine-1-carbonyl)-6-(p-tolyl)isoindolin-5-yl)acetic acid] showed an IC50 (MT4, 96 h) of 267 nM.

Take `Cc1ccc(-c2c(C)c3c(c(C)c2[C@H](OC(C)(C)C)C(=O)O)CN(CC2CCCN2C(=O)OC(C)(C)C)C3)cc1` (stereo partly drawn) [Example 40, (2S)-2-(tert-butoxy)-2-[2-({1-[(tert-butoxy)carbonyl]pyrrolidin-2-yl}methyl)-4,7-dimethyl-6-(4-methylphenyl)-2,3-dihydro-1H-isoindol-5-yl]acetic acid]: the IC50 (MT4, 96 h) worked out at 3430 nM.

`Cc1ccc(-c2c(C)c3c(c(C)c2[C@H](OC(C)(C)C)C(=O)O)CN(C(=O)c2nccn2C)C3)cc1` [Example 238, (S)-2-(tert-butoxy)-2-(4,7-dimethyl-2-(1-methyl-1H-imidazole-2-carbonyl)-6-(p-tolyl)isoindolin-5-yl)acetic acid]: the IC50 came out at 940 nM.

For the molecule `Cc1c(-c2c(C)c3c(c(C)c2[C@H](OC(C)(C)C)C(=O)O)CN(C(=O)N2CCCC2)C3)cc(F)c2c1CCCO2` (atropisomer, axis not shown; (M)) [Example 208, (S)-2-(tert-butoxy)-2-((M)-6-(8-fluoro-5-methylchroman-6-yl)-4,7-dimethyl-2-(pyrrolidine-1-carbonyl)isoindolin-5-yl)acetic acid], the IC50 (MT4, 96 h) is 4 nM.

As to `Cc1ccccc1C(=O)N1Cc2c(C)c(-c3cc(F)c4c(c3C)CCCO4)c([C@H](OC(C)(C)C)C(=O)O)c(C)c2C1` (atropisomer, axis not shown; (M)) [Example 146, (S)-2-(tert-butoxy)-2-((M)-6-(8-fluoro-5-methylchroman-6-yl)-4,7-dimethyl-2-(2-methylbenzoyl)isoindolin-5-yl)acetic acid], the IC50 (MT4, 96 h) was found to be 3 nM.

In turn, `Cc1ccc(-c2c(C)c3c(c(C)c2[C@H](OC(C)(C)C)C(=O)O)CN(C(=O)c2cccc4ccoc24)C3)cc1` [Example 167, (S)-2-(2-(benzofuran-7-carbonyl)-4,7-dimethyl-6-(p-tolyl)isoindolin-5-yl)-2-(tert-butoxy)acetic acid] had an IC50 (MT4, 96 h) of 4 nM.

Under “MT4, 96 h”, `Cc1ccc(-c2c(C)c3c(c(C)c2[C@H](OC(C)(C)C)C(=O)O)CN(C(=O)c2ccc(Cl)c(F)c2)C3)cc1` [Example 264, (S)-2-(tert-butoxy)-2-(2-(4-chloro-3-fluorobenzoyl)-4,7-dimethyl-6-(p-tolyl)isoindolin-5-yl)acetic acid] returned a concentration for half-maximal inhibition (IC50) of 9 nM.
